Values of other authors in US20100249042A1, “COMPOSITIONS AND METHODS FOR TREATMENT OF EYELASHES AND EYEBROWS” (ProCyte Corporation, priority 2009, published 2010).

Columns and labels:
[1] = test system: Dermal papilla cells (DPCs); conditions: in vitro; Pyo et al. 2007
[2] = test system: human hair follicles; conditions: ex vivo; Pyo et al. 2007

## L-alanyl-L-histidyl-L-lysine:copper(II) [AHK-Cu]
[1]
  proliferation of DPCs: stimulated
[2]
  elongation of human hair follicles: stimulated
